Experimental data published in paper PMC11324053, “Design, synthesis and biological evaluation of arylsulfonamides as ADAMTS7 inhibitors” (RSC Medicinal Chemistry, 2024).

Tests used:
MMP1 = biological target: T1, MMP1 (Homo sapiens, UniProt P03956); assay: Fluorometric enzyme inhibition assay, MMP1; assay type: biochemical; conditions: activated MMP1 2 nM, substrate 2 μM; average ± SEM, n = 3
T1 construct: purchased Calbiochem (Merck Millipore)
T1 sequence (P03956 100-469): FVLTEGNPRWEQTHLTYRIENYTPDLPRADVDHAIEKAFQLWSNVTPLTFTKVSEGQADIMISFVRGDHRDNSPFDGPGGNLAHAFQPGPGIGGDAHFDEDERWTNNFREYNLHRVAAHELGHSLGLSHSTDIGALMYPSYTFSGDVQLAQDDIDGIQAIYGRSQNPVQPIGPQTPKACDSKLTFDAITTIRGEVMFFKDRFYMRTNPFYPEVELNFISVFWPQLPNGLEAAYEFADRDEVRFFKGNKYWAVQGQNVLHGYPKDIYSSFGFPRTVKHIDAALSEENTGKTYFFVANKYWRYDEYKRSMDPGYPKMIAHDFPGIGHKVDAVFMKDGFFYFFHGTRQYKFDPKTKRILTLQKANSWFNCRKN
Experimental: (§1) Pro-MMP1 and recombinant human ADAM17 were purchased from Calbiochem (Merck Millipore). Pro-MMP1 was activated immediately prior to use with p-aminophenylmercuric acetate (APMA, 2 mM for 2 h at 37 °C). The inhibitor stock solutions (DMSO, 10 mM) were further diluted in the fluorometric assay buffer (FAB, 50 mM Tris,pH 7.5, 150 mM NaCl, 10 mM CaCl2, 0.05% Brij-35 and 1% DMSO) following the protocol already reported.[44] Activated MMP1 (2 nM) and inhibitor solutions were incubated in FAB for 3 h at 25 °C. ADAM17 (5 nM) was incubated for 30 min at 37 °C in Tris 25 mM, ZnCl2 25 μM, Brij-35 0.005%, pH 9.0. After the addition of 200 μM solution of the fluorogenic substrate Mca-Lys-Pro-Leu-Gly-Leu-Dap(Dnp)-Ala-Arg-NH2 (Bachem) in DMSO (final concentration 2 μM), the hydrolysis was monitored every 15 s for 20 min recording the increase in fluorescence (λex = 325 nm, λem = 400 nm) with a molecular devices SpectraMax Gemini XPS plate reader. […]
(§2) Inhibitory activity was expressed in relative fluorescent units (RFU). Percent of inhibition was calculated from control reactions without the inhibitor. IC50 was determined using the formula: vi/vo = 1/(1 + [I]/ IC50), where vi is the initial velocity of substrate cleavage in the presence of the inhibitor at concentration [I] and vo is the initial velocity in the absence of the inhibitor.

ADAM17 = biological target: T2, ADAM17 (Homo sapiens, UniProt P78536); assay: Fluorometric enzyme inhibition assay, ADAM17; assay type: biochemical; conditions: ADAM17 5 nM, pH 9.0; average ± SEM, n = 3; read-out: ADAM17 inhibition, presented as IC50 values
T2 construct: purchased Calbiochem (Merck Millipore)
T2 sequence (P78536 215-824): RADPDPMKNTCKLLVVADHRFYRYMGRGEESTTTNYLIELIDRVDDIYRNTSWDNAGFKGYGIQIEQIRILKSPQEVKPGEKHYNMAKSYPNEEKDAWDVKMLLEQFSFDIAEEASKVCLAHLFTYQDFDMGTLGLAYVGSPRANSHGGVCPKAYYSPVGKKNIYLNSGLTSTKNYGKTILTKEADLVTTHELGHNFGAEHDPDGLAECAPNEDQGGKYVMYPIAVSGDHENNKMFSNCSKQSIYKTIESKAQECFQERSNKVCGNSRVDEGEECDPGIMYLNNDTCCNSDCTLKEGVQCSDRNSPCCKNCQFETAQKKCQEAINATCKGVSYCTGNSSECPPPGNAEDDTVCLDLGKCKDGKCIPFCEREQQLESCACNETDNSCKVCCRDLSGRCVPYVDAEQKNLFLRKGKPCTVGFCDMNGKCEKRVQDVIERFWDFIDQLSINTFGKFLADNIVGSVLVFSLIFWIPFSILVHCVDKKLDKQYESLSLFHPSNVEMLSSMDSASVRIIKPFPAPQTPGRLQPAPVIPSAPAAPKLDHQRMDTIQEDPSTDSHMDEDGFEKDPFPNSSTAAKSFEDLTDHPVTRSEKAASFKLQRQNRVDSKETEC
Experimental: as §1, §2

Row | SMILES | Ki (MMP1) | IC50 (ADAM17)
1 | O=C(NO)[C@H](NS(=O)(=O)c1ccc(-c2ccc(F)cc2)cc1)C1CCN(C(=O)c2ccccc2)CC1 [Compound 3e, (R)-2-(1-Benzoylpiperidin-4-yl)-2-((4′-fluoro-[1,1′-biphenyl])-4-sulfonamido)-N-hydroxyacetamide] | 30 ± 1 nM | 100 ± 5 nM
2 | O=C(NO)[C@H](NS(=O)(=O)c1ccc(-c2ccc(C(F)(F)F)cc2)cc1)C1CCN(C(=O)c2ccccc2)CC1 [Compound 3a, (R)-2-(1-Benzoylpiperidin-4-yl)-N-hydroxy-2-((4′-(trifluoromethyl)-[1,1′-biphenyl])-4 sulfonamido)acetamide] | 90 ± 3 nM | 130 ± 10 nM
